Assay results as given in BindingDB's records for doi:10.1016/j.bmc.2020.115327 (Punjabi University, 2020).

Molecular target: Signal transducer and activator of transcription 3 (Homo sapiens, UniProt P40763)
Assay: Inhibition of STAT3 in human K562 cells assessed as reduction in STAT3 phosphorylation

Chain of Signal transducer and activator of transcription 3 (P40763 whole entry): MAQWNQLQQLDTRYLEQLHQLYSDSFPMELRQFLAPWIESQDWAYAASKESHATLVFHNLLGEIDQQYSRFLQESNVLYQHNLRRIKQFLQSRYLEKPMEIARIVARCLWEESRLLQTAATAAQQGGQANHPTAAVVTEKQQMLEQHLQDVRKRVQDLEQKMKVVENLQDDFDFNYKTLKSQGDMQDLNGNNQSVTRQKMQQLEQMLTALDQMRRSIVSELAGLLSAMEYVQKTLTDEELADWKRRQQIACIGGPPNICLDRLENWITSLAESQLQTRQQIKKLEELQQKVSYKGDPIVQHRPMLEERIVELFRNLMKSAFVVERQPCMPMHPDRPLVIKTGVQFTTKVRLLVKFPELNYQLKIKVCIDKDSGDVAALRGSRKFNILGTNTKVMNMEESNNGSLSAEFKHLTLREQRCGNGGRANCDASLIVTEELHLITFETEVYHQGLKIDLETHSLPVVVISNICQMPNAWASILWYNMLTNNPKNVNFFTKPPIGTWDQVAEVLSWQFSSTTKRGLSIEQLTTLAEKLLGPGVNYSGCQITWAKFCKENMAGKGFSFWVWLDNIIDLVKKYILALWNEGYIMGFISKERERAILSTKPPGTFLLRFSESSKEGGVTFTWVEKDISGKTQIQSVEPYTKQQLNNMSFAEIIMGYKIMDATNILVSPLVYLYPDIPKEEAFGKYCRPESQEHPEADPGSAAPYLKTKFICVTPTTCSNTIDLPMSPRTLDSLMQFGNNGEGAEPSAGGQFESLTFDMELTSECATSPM

IC50 [µM]	Compound
18.9	CCc1ccc(Nc2nc3cc(N)ccc3o2)cc1
5.8	CCc1ccc(Nc2nc3cc(NC(=O)c4ccccc4)ccc3o2)cc1
